The record followed here is ChEMBL document CHEMBL5625223 (Eur J Med Chem, 2023).

Bounds are passed on as bounds.

For one assay, the target named is T1, Adenosine receptor A3 (Homo sapiens, UniProt P0DMS8).
T1 sequence (P0DMS8 whole entry): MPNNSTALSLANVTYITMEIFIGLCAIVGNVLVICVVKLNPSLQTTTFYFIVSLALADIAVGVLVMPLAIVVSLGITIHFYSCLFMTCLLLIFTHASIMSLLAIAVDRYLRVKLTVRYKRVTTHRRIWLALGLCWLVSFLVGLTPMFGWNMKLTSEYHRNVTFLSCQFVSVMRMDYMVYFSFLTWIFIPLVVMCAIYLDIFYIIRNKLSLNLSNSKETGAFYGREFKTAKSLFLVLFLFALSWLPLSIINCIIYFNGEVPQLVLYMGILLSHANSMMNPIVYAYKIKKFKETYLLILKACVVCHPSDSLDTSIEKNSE
Briefly: Displacement of […] from human A3AR expressed in HEK cells assessed as inhibition constant. In kind it is cell-based.

Another assay addresses T2, Adenosine receptor A1 (Homo sapiens, UniProt P30542).
T2 sequence (P30542 whole entry): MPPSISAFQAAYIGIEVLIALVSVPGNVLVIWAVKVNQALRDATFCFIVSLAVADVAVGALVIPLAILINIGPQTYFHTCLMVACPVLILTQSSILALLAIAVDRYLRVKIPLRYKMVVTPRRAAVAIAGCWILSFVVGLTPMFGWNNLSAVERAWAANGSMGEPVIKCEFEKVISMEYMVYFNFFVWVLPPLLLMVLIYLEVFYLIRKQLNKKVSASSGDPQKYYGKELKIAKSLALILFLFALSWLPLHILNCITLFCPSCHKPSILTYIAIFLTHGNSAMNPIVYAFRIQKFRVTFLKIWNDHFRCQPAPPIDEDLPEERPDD
The experiment in a line: Displacement of […] from human A1AR expressed in Flp-In-T-REx-293 cells assessed as inhibition constant. It counts as cell-based.

Assay [1] addresses T3, 5-hydroxytryptamine receptor 2A (Homo sapiens, UniProt P28223). Briefly: Displacement of [3H]ketanserin from human 5-HT2A receptor expressed in HEK293 cells at 10 uM incubated for 1 hr relative to control. In kind it is cell-based.
Assay [2] concerns the target T4, 5-hydroxytryptamine receptor 2C (Homo sapiens, UniProt P28335).
T4 sequence (P28335 whole entry): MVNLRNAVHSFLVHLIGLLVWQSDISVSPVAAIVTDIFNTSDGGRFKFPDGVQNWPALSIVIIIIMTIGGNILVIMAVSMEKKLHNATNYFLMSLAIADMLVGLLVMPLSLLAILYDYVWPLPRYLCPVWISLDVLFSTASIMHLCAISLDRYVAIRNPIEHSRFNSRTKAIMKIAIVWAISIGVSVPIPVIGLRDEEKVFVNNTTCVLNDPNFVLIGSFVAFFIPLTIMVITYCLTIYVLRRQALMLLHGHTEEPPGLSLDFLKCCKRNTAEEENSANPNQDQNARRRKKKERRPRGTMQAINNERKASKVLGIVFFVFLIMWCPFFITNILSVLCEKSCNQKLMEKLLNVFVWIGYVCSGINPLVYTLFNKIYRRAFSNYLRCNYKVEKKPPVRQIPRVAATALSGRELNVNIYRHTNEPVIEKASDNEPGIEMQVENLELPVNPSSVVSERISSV
The experiment in a line: Displacement of [3H]-Mesulergine from human 5-HT2C expressed in Flp-In-T-REx-293 cells assessed as inhibition constant incubated for 1 hr. In kind it is cell-based.

For assay [3], the target named is T5, 5-hydroxytryptamine receptor 2B (Homo sapiens, UniProt P41595). Briefly: Displacement of [3H]-LSD from human 5-HT2B receptor expressed in HEK cells assessed as inhibition constant incubated for 1 hr. It counts as cell-based.
The target of assay [4] is T6, Adenosine receptor A3 (Homo sapiens) (UniProt P0DMS8).
T6 sequence (whole entry): T1 sequence (P0DMS8 whole entry)
Briefly: Displacement of […] from human A3AR expressed in HEK cells at 10 uM relative to control. In kind it is cell-based.

The target of assay [5] is T7, 5-hydroxytryptamine receptor 2C (Homo sapiens) (UniProt P28335).
T7 sequence (whole entry): T4 sequence (P28335 whole entry)
Briefly: Displacement of [3H]-Mesulergine from human 5-HT2C expressed in Flp-In-T-REx-293 cells at 10 uM incubated for 1 hr relative to control. It counts as cell-based.

Assay [6] deals with Adenosine receptor A2a (Homo sapiens) (UniProt P29274). Briefly: Displacement of […] from human A2AR expressed in HEK cells at 10 uM relative to control. In kind it is cell-based.
Assay [7] addresses T5, 5-hydroxytryptamine receptor 2B. The experiment in a line: Displacement of [3H]-LSD from human 5-HT2B receptor expressed in HEK cells at 10 uM incubated for 1 hr relative to control. In kind it is cell-based.
In assay [8] the target is T3, 5-hydroxytryptamine receptor 2A. Briefly: Binding affinity to 5HT2A receptor (unknown origin) at 10 uM relative to control.
Assay [9] concerns the target T4, 5-hydroxytryptamine receptor 2C. The experiment in a line: Binding affinity to 5HT2C receptor (unknown origin) assessed as inhibition constant.
The target in assay [10] is T5, 5-hydroxytryptamine receptor 2B. The experiment in a line: Binding affinity to 5HT2B receptor (unknown origin) assessed as inhibition constant.
The target in assay [11] is T7, 5-hydroxytryptamine receptor 2C (Homo sapiens). The settings on record: Flp-In-T-REx-293, filed as antagonist, time 1.0 hrs.
Assay [12] addresses T3, 5-hydroxytryptamine receptor 2A. The settings on record: Flp-In-T-REx-293, time 1.0 hrs.

T3 sequence (P28223 whole entry): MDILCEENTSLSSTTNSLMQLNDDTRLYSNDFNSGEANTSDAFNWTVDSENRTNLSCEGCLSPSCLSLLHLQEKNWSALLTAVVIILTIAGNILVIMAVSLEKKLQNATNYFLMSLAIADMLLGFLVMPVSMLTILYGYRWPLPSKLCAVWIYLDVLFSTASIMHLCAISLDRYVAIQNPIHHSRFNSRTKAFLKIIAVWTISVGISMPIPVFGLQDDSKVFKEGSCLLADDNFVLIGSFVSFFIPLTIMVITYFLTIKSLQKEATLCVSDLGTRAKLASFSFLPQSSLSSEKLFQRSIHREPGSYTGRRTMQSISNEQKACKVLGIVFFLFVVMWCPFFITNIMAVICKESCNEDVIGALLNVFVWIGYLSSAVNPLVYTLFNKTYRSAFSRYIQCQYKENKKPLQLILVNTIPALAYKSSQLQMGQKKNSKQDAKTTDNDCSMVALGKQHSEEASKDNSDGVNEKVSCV
T5 sequence (P41595 whole entry): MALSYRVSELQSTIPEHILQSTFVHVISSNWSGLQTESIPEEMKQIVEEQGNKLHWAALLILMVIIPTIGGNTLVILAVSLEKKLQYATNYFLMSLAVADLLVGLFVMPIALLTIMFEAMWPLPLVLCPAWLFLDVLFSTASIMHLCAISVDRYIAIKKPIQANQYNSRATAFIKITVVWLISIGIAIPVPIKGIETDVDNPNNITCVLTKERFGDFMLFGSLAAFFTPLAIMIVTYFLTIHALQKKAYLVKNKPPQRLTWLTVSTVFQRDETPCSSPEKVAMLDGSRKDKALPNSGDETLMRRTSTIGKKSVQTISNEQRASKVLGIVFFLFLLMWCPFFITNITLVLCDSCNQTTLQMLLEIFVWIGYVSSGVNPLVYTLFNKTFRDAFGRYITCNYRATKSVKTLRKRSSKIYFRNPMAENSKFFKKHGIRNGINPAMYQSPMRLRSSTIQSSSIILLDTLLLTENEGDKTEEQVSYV
Sequence of Adenosine receptor A2a (Homo sapiens) (P29274 whole entry): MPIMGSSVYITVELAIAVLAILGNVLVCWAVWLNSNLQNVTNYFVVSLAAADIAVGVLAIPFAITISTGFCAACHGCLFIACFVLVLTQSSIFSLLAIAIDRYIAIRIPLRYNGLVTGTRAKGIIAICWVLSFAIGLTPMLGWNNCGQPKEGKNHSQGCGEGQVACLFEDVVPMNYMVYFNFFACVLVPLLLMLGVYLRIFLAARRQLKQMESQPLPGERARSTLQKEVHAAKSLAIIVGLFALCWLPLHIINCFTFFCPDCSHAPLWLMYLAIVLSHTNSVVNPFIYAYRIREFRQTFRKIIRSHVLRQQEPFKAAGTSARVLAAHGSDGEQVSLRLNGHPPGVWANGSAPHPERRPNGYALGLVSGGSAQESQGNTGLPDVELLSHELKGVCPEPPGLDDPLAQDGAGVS

Turning to `CSC[C@@]12C[C@@H]1[C@@H](n1cnc3c(NC(C4CC4)C4CC4)nc(Cl)nc31)[C@H](O)[C@@H]2O`, the values for the Ki (at Adenosine receptor A3; on Adenosine receptor A1; in [2] (read-out: Ki)) were 932 nM, 63.2 nM and 772 nM, respectively. In addition, in [1], the Activity is 19%.

Turning to `NC[C@H]1O[C@@H](n2cnc3c(N[C@H](C4CCC4)C4CC4)nc(I)nc32)[C@H](O)[C@@H]1O`, the Ki in assay [3] amounted to 178 nM; at Adenosine receptor A1 it was 147 nM. The Activity is 56% in [4] (filed as agonist), -1% in [5], 39% in assay [6] and 9% in assay [1].

In the case of `Nc1nc(I)nc2c1ncn2[C@H]1[C@H](O)[C@H](O)[C@]2(CCl)C[C@H]12`, the Activity in assay [7] was 11%; in assay [5], 12%; in assay [1], 0%. The Ki at Adenosine receptor A3 is 390 nM; at Adenosine receptor A1, 147 nM.

Consider `OC[C@@]12C[C@@H]1[C@@H](n1cnc3c(NC(C4CCC4)C4CCC4)nc(Cl)nc31)[C@H](O)[C@@H]2O`, for which the Activity in [8] came out at 8%. The Ki in assay [9] was 368 nM.

In the case of `CCOC(=O)[C@@]12C[C@@H]1[C@@H](n1cnc3c(NC(C4CCC4)C4CCC4)nc(Cl)nc31)[C@H](O)[C@@H]2O`, in [8], the Activity is 35%. For the same compound, the Ki in [10] was determined as 136 nM; in assay [9] it was 351 nM.

As to `CSC[C@@]12C[C@@H]1[C@@H](n1cnc3c(N)nc(I)nc31)[C@H](O)[C@@H]2O`, the Activity in [7] came out at 12%; in [5] it was 12%; in [1], 0%. Moreover, the Ki at Adenosine receptor A3 is 92.5 nM; on Adenosine receptor A1, 1350 nM.

`OC[C@@]12C[C@@H]1[C@@H](n1cnc3c(N[C@H](C4CCC4)C4CC4)nc(I)nc31)[C@H](O)[C@@H]2O`: the Activity worked out at 34% in [4], 50% in [6] (filed as agonist) and 29% in [1]. Further, the values for the pKb in assay [11] and in assay [12] were 6.54 and less than 5, respectively. The values for the Ki (on Adenosine receptor A1; in [2] (read-out: Ki); in assay [2] (read-out: pKi (converted))) were 42.7 nM, 670 nM and 603 nM, respectively.

With `CC(C)[C@@H](Nc1nc(I)nc2c1ncn2[C@H]1[C@H](O)[C@H](O)[C@]2(CO)C[C@H]12)C1CC1`, the Ki is 81.9 nM in assay [3], 11700 nM at Adenosine receptor A3, 30.7 nM on Adenosine receptor A1 and 904 nM in assay [2] (read-out: Ki). The Activity came out at 60% in assay [6] (filed as agonist) and 7% in [1].

For the compound `O[C@H]1[C@H](n2cnc3c(NC(C4CCC4)C4CCC4)nc(Cl)nc32)[C@H]2C[C@@]2(CCl)[C@H]1O`, the Activity in [8] turned out to be 28%. In assay [9], the Ki was 908 nM.

Take `O[C@H]1[C@H](n2cnc3c(NC(C4CC4)C4CC4)nc(Cl)nc32)[C@H]2C[C@@]2(CF)[C@H]1O`: the Activity in [5] (filed as antagonist) came to 47%; in assay [6] (filed as agonist), 55%; in [1], 14%. In addition, the Ki stood at 3700 nM on Adenosine receptor A3 and 5.95 nM at Adenosine receptor A1.

Take `CCCCSC[C@@]12C[C@@H]1[C@@H](n1cnc3c(NC(C4CCCC4)C4CCCC4)nc(Cl)nc31)[C@H](O)[C@@H]2O`: the Ki in [3] turned out to be 549 nM. In addition, the Activity stood at 27% in assay [5], 8% in assay [6] and 22% in assay [1].

With `Ic1nc(N[C@H](C2CCC2)C2CC2)c2nc[nH]c2n1`, the Ki in assay [3] worked out at 313 nM; at Adenosine receptor A1, 648 nM. The values for the Activity in assay [5] and in assay [1] were 5% and -10%, respectively.

Consider `OC[C@@]12C[C@@H]1[C@@H](n1cnc3c(NC(C4CCCCC4)C4CCCCC4)nc(Cl)nc31)[C@H](O)[C@@H]2O`, for which the Ki on Adenosine receptor A3 worked out at 16600 nM. Besides, the Activity came to 7% in assay [6] and 47% in assay [1] (filed as antagonist).

In the case of `Nc1nc(I)nc2c1ncn2[C@H]1[C@H](O)[C@H](O)[C@]2(CO)C[C@H]12`, the Activity is -3% in assay [7], -38% in [5] and -27% in assay [1].

Consider `O[C@H]1[C@H](n2cnc3c(NC(C4CCCCC4)C4CCCCC4)nc(Cl)nc32)[C@H]2C[C@@]2(CCl)[C@H]1O`, for which the results for the Ki (on Adenosine receptor A3; in assay [2] (read-out: Ki)) were 9320 nM and 73.5 nM, respectively. Besides, in assay [6], the Activity is -9%.

As to `O[C@@H]1[C@H](O)[C@@H]2C[C@@H]2[C@H]1n1cnc2c(NC(C3CCCC3)C3CCCC3)nc(Cl)nc21`, the Activity in [6] was 24%; in assay [1] it was 22%.

As to `OC[C@@]12C[C@@H]1[C@@H](n1cnc3c(NC(C4CCC4)C4CCC4)ncnc31)[C@H](O)[C@@H]2O`, in assay [8], the Activity was 18%. For the same compound, the values for the Ki in assay [10] and in [9] were 186 nM and 1020 nM, respectively.

As to `O[C@H]1[C@H](n2cnc3c(NC(C4CCC4)C4CCC4)ncnc32)[C@H]2C[C@@]2(CCl)[C@H]1O`, the Activity in assay [8] came to 11%. Further, the Ki in [10] was found to be 1090 nM; in assay [9], 1230 nM.

For the compound `CSC[C@@]12C[C@@H]1[C@@H](n1cnc3c(NC(C4CC4)C4CC4)nc(I)nc31)[C@H](O)[C@@H]2O`, the Ki was found to be 522 nM in assay [3], 466 nM at Adenosine receptor A1 and 493 nM in assay [2] (read-out: Ki). The Activity in assay [4] (filed as agonist) is 62%; in [6] (filed as agonist), 40%; in assay [1], 16%.

Regarding `OC[C@H]1O[C@@H](n2cnc3c(N[C@H](C4CCC4)C4CC4)nc(I)nc32)[C@H](O)[C@@H]1O`, the Activity in assay [7] (filed as antagonist) is 44%; in assay [4], 34%; in assay [5], -1%; in assay [6] (filed as agonist) it was 72%; in [1], 6%. Also, on Adenosine receptor A1, the Ki came to 21.3 nM.

On to `CCOC(=O)[C@@]12C[C@@H]1[C@@H](n1cnc3c(NC(C4CCCC4)C4CCCC4)nc(Cl)nc31)[C@H](O)[C@@H]2O`, for which the Ki in assay [3] was 239 nM; on Adenosine receptor A3, 9720 nM; in assay [2] (read-out: Ki), 139 nM. Further, the Activity in [6] was -22%; in [1] (filed as antagonist), 42%.

Regarding `COCCN(CCOC)C(=O)[C@]12C[C@H]1[C@H](n1cnc3c(N)nc(Cl)nc31)[C@@H](O)[C@H]2O` (single isomer, unassigned), the Activity in [7] was 36%; in assay [4] (filed as agonist), 51%; in [5], 12%; in assay [1] it was 3%.

As for `COCCN(CCOC)C(=O)[C@]12C[C@H]1[C@H](n1cnc3c(NC(C4CC4)C4CC4)nc(Cl)nc31)[C@@H](O)[C@H]2O` (single isomer, unassigned), the Activity in assay [4] came to 30%; in assay [5], 38%; in assay [6], 34%; in assay [1], 0%.

Turning to `OC[C@@]12C[C@@H]1[C@@H](n1cnc3c(NC(C4CC4)C4CC4)nc(I)nc31)[C@H](O)[C@@H]2O`, the values for the Ki (on Adenosine receptor A3; at Adenosine receptor A1; in [2] (read-out: Ki)) were 7810 nM, 13.4 nM and 249 nM, respectively. The Activity in assay [6] (filed as agonist) was 63%; in [1] it was 35%.
